The values that follow come from patent publication US9433621B2, “Substituted pyridine and pyrimidine derivatives and their use in treating viral infections” (Merck Sharp & Dohme Corp., priority 2010, dated 2016).

SMILES strings stand for the structures. Where two headings read alike, the source gives them in different places.

The test system of this experiment is HCV replicon. Put plainly: Cell-Based HCV Replicon Assay. To be noted: Hepatitis C virus. The method in brief: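 Replicon cells, 5000/well, treated 3 days with 10 serial 2-fold dilutions (top 25 μM to 1 μM) in 0.5% DMSO, 10% FBS. Replicon RNA measured by multiplex Taqman RT-PCR (NS5B amplicon, GAPDH control); EC50/EC90 = concentration giving ΔCT of 1/3.2 over baseline from sigmoid fit.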
For orientation: A replicon is a self-replicating genome or part of one, used to study replication in cells.

The mark [1] stands for this setting: HCV Replicon assay, EC90 range, Table VI, read-out: EC90.
Where [2] appears, read: 72 h, Table IV, replicon cells, day 3, real time PCR, EC90 = concentration for ΔCT=3.2 over baseline, read-out: EC90.

Usually EC90 stands for the point of the concentration-response curve where the effect stands at 90%. Turning to `Cc1nc(NC2CC2)nc(N[C@@H]2C[C@H](C(C)C)[C@@H](O)[C@H]2O)c1-c1nc2c(C)nccc2s1` [Example 5285], the EC90 under setting [1] was < 0.5 µM. As for `Cc1nc(NCC2(O)CCCC2)nc(N[C@H]2CC[C@@H](CO)C2)c1-c1nc2c(C)nccc2s1` [Example 5159], under setting [1], the EC90 was < 0.5 µM.

`Cc1nc(NCC(C)(C)C)nc(N[C@@H]2C[C@H](C(F)F)[C@@H](O)[C@H]2O)c1-c1nc2c(C3CC3)nccc2s1` [Example 5181]: the EC90 under setting [1] is < 0.5 µM. `Cc1nc(N[C@H](C)c2ccc(OC(F)(F)F)cc2)nc(N[C@@H]2C[C@H](CO)[C@@H](O)[C@H]2O)c1-c1nc2c(N)nccc2s1` [Example 4413]: the 90% effect concentration (EC90) under setting [2] worked out at 0.121 µM. Take `COCCNc1nc(C)c(-c2nc3c(C4CC4)nccc3s2)c(N[C@@H]2C[C@H](C(C)(C)S(C)(=O)=O)[C@@H](O)[C@H]2O)n1` [Example 5075]: the EC90 under setting [1] was < 0.5 µM. Regarding `CSCCNc1nc(C)c(-c2nc3c(C)nccc3s2)c(N[C@@H]2C[C@H](C(C)(C)O)[C@@H](O)[C@H]2O)n1` [Example 5241], the EC90 under setting [1] was < 0.5 µM. On to `Cc1nc(NCc2c(F)cc(F)cc2F)nc(N[C@@H]2C[C@H](C(C)(C)O)[C@@H](O)[C@H]2O)c1-c1nc2c(C)nccc2s1` [Example 3188], for which, under setting [2], the concentration for an effect of 90% (EC90) stood at 0.021 µM.

As for `CO[C@@H]1CCCC[C@H]1Nc1nc(C)c(-c2nc3c(C)nccc3s2)c(N[C@@H]2C[C@H](C(C)(C)O)[C@@H](O)[C@H]2O)n1` [Example 5140], the EC90 under setting [1] is < 0.5 µM. For the compound `Cc1nc(N)nc(N[C@@H]2C[C@H](C(=O)N3CCOCC3)[C@@H](O)[C@H]2O)c1-c1nc2c(C3CC3)nccc2s1` [Example 4925], where the note is “72 h, Table V, class codes, replicon cells, day 3, real time PCR, EC90 = concentration for ΔCT=3.2 over baseline, read-out: EC90 (uM) range”, the EC90 was < 0.5 µM. Take `Cc1nc(NCC2CC2)nc(N[C@@H]2C[C@H](C(C)(F)F)[C@@H](O)[C@H]2O)c1-c1nc2c(C3CC3)nccc2s1` [Example 3056]: the EC90 under setting [2] was 0.007 µM. Consider `COCCNc1nc(C)c(-c2nc3c(C)nccc3s2)c(N[C@@H]2C[C@H](C(C)(C)S(C)(=O)=O)[C@@H](O)[C@H]2O)n1` [Example 5071], for which the EC90 under setting [1] was < 0.5 µM.
